From patent publication US5066654A, “2-aryl-3-heterocyclicmethyl-3H-imidazo[4,5-b]pyridines as anxiolytics and anticonvulsants” (A. H. Robins Company, Incorporated, priority 1990, dated 1991) come the findings set out here.

One data set has as its target benzodiazepine receptor. The data set is described as follows: inhibition of [^3 H]-flunitrazepam binding to the benzodiazepine receptor. The procedure: Anxiolytic activity was evaluated in vitro according to the method of Chiu et al. [Mol. Pharmacol. 21, 57 (1982)] by determining the IC50 for the inhibition of [^3 H]-flunitrazepam binding to the benzodiazepine receptor.
*Inhibition of [^3 Hflunitroazepam binding to the benzodiazepine

Data set [1] has as its system adult female mice. The data set is described as follows: MES, maximal electroshock test (electrically induced seizures). It is filed as in vivo. The note with it: Mus musculus; for responders at 31.6 mg/kg / responders at 100 mg/kg: read-out: MES (% protection). The procedure:
(§1) Briefly, test compound was administered to adult female mice, followed by either electrical (60 Hz, 5 msec. pulse width […] intensity for 0.2 seconds) or chemical [Metrazole® (pentylenetetrazol)] challenge. […] Results are expressed either as percent protection at a given dose or as the ED50 for protection.
**MES = Maximal electroshock test; results given as % protection at a
given dose (mg/kg) or ED50 (mg/kg).
For orientation: In the maximal electroshock model the usual endpoint is tonic extension of the hind limbs.

The subject of data set [2] is adult female mice. The data set is described as follows: SC-MET, subcutaneous Metrazole (pentylenetetrazol) test (chemically induced seizures). Format: in vivo. Conditions: for ED50: Mus musculus, sc, ED50 for protection. The procedure:
as §1
^+ SCMET = subcutaneous Metrazole ® test; results given as %
protection at a given dose (mg/kg) or ED50 (mg/kg).

The subject of data set [3] is mouse. Briefly: loss of righting reflex test procedure (ataxia). It is filed as in vivo. As for the experimental part: Compounds with anticonvulsant activity typically cause ataxia, an undesirable side effect, at some dose. Representative compounds of this invention were evaluated in a loss of righting reflex test procedure [A. P. Roszkowski, J. Pharmacol. Exp. Ther. 129, 75-81 (1960)]. Briefly, the compound to be evaluated was administered to a mouse which was then placed upside down in its cage. Failure to right itself within 20 seconds was considered to be loss of the righting reflex. Results are expressed as percent of mice losing righting reflex at a given dose.

Data set [4] concerns mouse. Briefly: exploratory light/dark test procedure (anxiolytic activity). It is filed as in vivo. The procedure:
Anxiolytic activity also was evaluated in vivo in an exploratory […] test procedure [Young et al., Soc. Neurosci. Abs. 14,207 (1988) and Costall et al., Brit. J. Pharmacol. 93,985 (1988)]. Briefly, test compound was administered to a mouse which was placed in a two compartment light-dark activity monitoring box. Control animals typically move to the dark side of the box to avoid the bright light. Animals treated with anxiolytic agents spend more time exploring the lit side of the box than control animals. […]
The following table summarizes the results of representative compounds of this invention in the light/dark exploratory test procedure for anxiolytic activity. Compounds were compared with diazepam as a reference standard at each dose level.

Where [5] appears, read: [^3 H]-flunitrazepam, in vitro, read-out: ^3 H-Flu binding IC50.

Where “and” joins values, the source holds several entries; their conditions need not be identical. Equal entries are not always repeated. Where two headings read alike, the source gives them in different places.

Take `Cc1ccc(-c2nc3cccnc3n2Cc2ncc[nH]2)cc1` [Example 9, 3-(1H-Imidazol-2-ylmethyl)-2-(4-methylphenyl)-3H-imidazo[4,5-b]pyridine]: the IC50 on benzodiazepine receptor (setting [5]) is 140 nM. Also, the responders at 31.6 mg/kg in the data set on adult female mice [1] was found to be 0%. For the same compound, in the data set with adult female mice [2], the 50% effect level (ED50) was put at a dose of 15.4 mg/kg.

As to `Clc1ccc(-c2nc3cccnc3n2Cc2ncc[nH]2)cc1` [Example 8, 2-(4-Chlorophenyl)-3-(1H-imidazol-2-ylmethyl)-3H-imidazo[4,5-b]pyridine], the IC50 on benzodiazepine receptor (setting [5]) is 410 nM. In the data set with adult female mice [1], the responders at 31.6 mg/kg worked out at 0%. Also, the “SC-MET (% protection)” value in the data set with adult female mice [2] (dose 31.6 mg/kg) amounted to 0%. Moreover, the “% Loss of Righting Reflex” value in the data set with mouse [3] (dose 31.6 mg/kg) was found to be 0%.

For `Cc1c[nH]c(Cn2c(-c3ccc(Cl)cc3)nc3cccnc32)n1` [Example 11, 2-(4-Chlorophenyl)-3-(4-methyl-1H-imidazol-2-ylmethyl)-3H-imidazo[4,5-b]pyridine], the IC50 at benzodiazepine receptor (setting [5]) amounted to 390 nM. In addition, the “% of Time in Lit Area, Compound” value in the data set on mouse [4] (dose 1.0 mg/kg) was determined as 38%; with mouse [4] (dose 3.16 mg/kg), 40%; with mouse [4] (dose 10.0 mg/kg), 40%; in the data set with mouse [4] (dose 31.6 mg/kg), 53%. Besides, the responders at 100 mg/kg in the data set with adult female mice [1] amounted to 0%. In addition, in the data set on adult female mice [2], the ED50 was determined as 16.8 mg/kg. The “% Loss of Righting Reflex” value with mouse [3] (dose 100 mg/kg) turned out to be 0%.

Take `Cc1ccc(-c2nc3cccnc3n2Cc2ccccn2)cc1` [Example 2, 2-(4-Methylphenyl)-3-(2-pyridinylmethyl)-3H-imidazo[4,5-b]pyridine]: the IC50 at benzodiazepine receptor (setting [5]) was 3100 nM. In addition, the responders at 100 mg/kg with adult female mice [1] was found to be 25%. Further, the ED50 in the data set with adult female mice [2] stood at 48.7 mg/kg. Also, the “% Loss of Righting Reflex” value in the data set on mouse [3] (dose 100 mg/kg) is 0%.

As to `CN1C(=O)CN=C(c2ccccc2)c2cc(Cl)ccc21` [Diazepam, diazepam, reference compound], the “% of Time in Lit Area, Diazepam” value in the data set on mouse [4] (diazepam reference, row of dose 0.01 mg/kg) was 27%; in the data set on mouse [4] (diazepam reference, row of dose 0.1 mg/kg) it was 27%; in the data set on mouse [4] (diazepam reference, row of dose 1.0 mg/kg, 1 mg/kg), 28% and 26%; in the data set on mouse [4] (diazepam reference, row of dose 3.16 mg/kg, 3.16 mg/kg), 26% and 27% and 28%; with mouse [4] (diazepam reference, row of dose 5.62 mg/kg), 27%; with mouse [4] (diazepam reference, row of dose 10.0 mg/kg, 10 mg/kg), 26% and 28%. The “% of Time in Lit Area, Diazepam” value in the data set with mouse [4] (diazepam reference, row of dose 31.6 mg/kg, 31.6 mg/kg) is 28% and 26%. Moreover, the “sedation, Diazepam” value in the data set with mouse [4] (diazepam reference, row of dose 17.8 mg/kg) is recorded as “sedation”. Besides, the “% of Time in Lit Area, Diazepam (additional result)” value with mouse [4] (dose of 10 mg/kg, additional result in footnote) is listed as 28%.

Consider `Cc1ccc2nc(-c3ccc(Cl)cc3)n(Cc3ccccn3)c2n1` [Example 7, 2-(4-Chlorophenyl)-5-methyl-3-(2-pyridinylmethyl)-3H-imidazo[4,5-b]pyridine], for which, on benzodiazepine receptor (setting [5]), the IC50 stood at 7300 nM. The ED50 in the data set with adult female mice [1] (ED50 for protection) came out at 76 mg/kg; in the data set with adult female mice [2], 29.4 mg/kg. The “% Loss of Righting Reflex” value in the data set on mouse [3] (dose 100 mg/kg) was 62.5%.

For `Clc1ccc(-c2nc3ccc(Cl)nc3n2Cc2ccccn2)cc1` [Example 3, 5-Chloro-2-(4-chlorophenyl)-3-(2-pyridinylmethyl)-3H-imidazo[4,5-b]pyridine], the half-inhibitory concentration (IC50) on benzodiazepine receptor (setting [5]) came to 3300 nM. The responders at 100 mg/kg with adult female mice [1] worked out at 0%. In addition, in the data set with adult female mice [2] (dose 100 mg/kg), the “SC-MET (% protection)” value stood at 62.5%. For the same compound, in the data set with mouse [3] (dose 100 mg/kg), the “% Loss of Righting Reflex” value came out at 0%.

As for `Cc1ccc(-c2nc3ccc(Cl)nc3n2Cc2ccccn2)cc1` [Example 4, 5-Chloro-2-(4-methylphenyl)-3-(2-pyridinylmethyl)-3H-imidazo[4,5-b]pyridine], the half-inhibitory concentration (IC50) on benzodiazepine receptor (setting [5]) is 1600 nM. This compound returned an ED50 in the data set on adult female mice [2] of 38.8 mg/kg. In addition, the “% Loss of Righting Reflex” value with mouse [3] (dose 100 mg/kg) turned out to be 0%.

For `Cc1ccc(-c2nc3cccnc3n2Cc2nc(C)c[nH]2)cc1` [Example 12], the half-maximal inhibitory concentration (IC50) at benzodiazepine receptor (setting [5]) was 220 nM. The “% of Time in Lit Area, Compound” value in the data set with mouse [4] (dose 1.0 mg/kg) is on record as 38%; in the data set with mouse [4] (dose 3.16 mg/kg) it was 40%; in the data set on mouse [4] (dose 10.0 mg/kg) it was 51%; in the data set on mouse [4] (dose 31.6 mg/kg), 48%. Moreover, the responders at 100 mg/kg in the data set with adult female mice [1] was determined as 0%. The same compound showed an ED50 in the data set with adult female mice [2] of 14.8 mg/kg. Moreover, in the data set on mouse [3] (dose 100 mg/kg), the “% Loss of Righting Reflex” value came out at 0%.

With `Clc1ccc(-c2nc3ccc(Cl)nc3n2Cc2ncc[nH]2)cc1` [Example 10, 5-Chloro-2-(4-chlorophenyl)-3-(1H-imidazol-2-ylmethyl)-3H-imidazo[4,5-b]pyridine], the IC50 was determined as 130 nM at benzodiazepine receptor (setting [5]) and 160 nM on benzodiazepine receptor (obtained on reevaluation, read-out: ^3 H-Flu binding IC50 (reevaluation)). For the same compound, the “% of Time in Lit Area, Compound” value in the data set with mouse [4] (dose 0.01 mg/kg) was found to be 35%; in the data set with mouse [4] (dose 0.1 mg/kg), 37%; in the data set on mouse [4] (dose 3.16 mg/kg), 49%; in the data set with mouse [4] (dose 5.62 mg/kg) it was 49%; in the data set on mouse [4] (dose 10.0 mg/kg) it was 40%. Besides, the “% of Time in Lit Area, Compound (additional result)” value in the data set on mouse [4] (dose 10 mg/kg, additional result in footnote) is 38%. For the same compound, the “sedation, Compound” value in the data set on mouse [4] (mouse, in vivo, 17.8 mg/kg) was “sedation”. This compound displayed an ED50 in the data set on adult female mice [2] of 8.6 mg/kg. In addition, the “% Loss of Righting Reflex” value with mouse [3] (dose 100 mg/kg) stood at 0%.

As to `Cc1ccc(-c2nc3ccc(Cl)nc3n2Cc2ncc[nH]2)cc1` [Example 5, 5-Chloro-3-(1H-imidazol-2-ylmethyl)-2-(4-methylphenyl)-3H-imidazo[4,5-b]pyridine], the half-maximal inhibitory concentration (IC50) at benzodiazepine receptor (setting [5]) stood at 300 nM. Further, the responders at 100 mg/kg in the data set with adult female mice [1] worked out at 0%. In the data set with adult female mice [2], this compound displayed an ED50 of 6.92 mg/kg. Also, in the data set on mouse [3] (dose 100 mg/kg), the “% Loss of Righting Reflex” value is on record as 0%.

As for `Clc1ccc(-c2nc3cccnc3n2Cc2ccccn2)cc1` [Example 1, 2-(4-Chlorophenyl)-3-(2-pyridinylmethyl)-3H-imidazo[4,5-b]pyridine], the IC50 on benzodiazepine receptor (setting [5]) is 7000 nM. For the same compound, the responders at 100 mg/kg in the data set with adult female mice [1] stood at 0%. Further, the “SC-MET (% protection)” value in the data set on adult female mice [2] (dose 100 mg/kg) is given as 37.5%. Moreover, the “% Loss of Righting Reflex” value with mouse [3] (dose 100 mg/kg) worked out at 0%.

For the compound `Cc1ccc(-c2nc3ccc(C)nc3n2Cc2ccccn2)cc1` [Example 6, 5-Methyl-2-(4-methylphenyl)-3-(2-pyridinylmethyl)-3H-imidazo[4,5-b]pyridine], the IC50 at benzodiazepine receptor (setting [5]) was 3900 nM. Also, the entries for the “% of Time in Lit Area, Compound” value in the data set on mouse [4] (dose 3.16 mg/kg) and in the data set with mouse [4] (dose 10.0 mg/kg) were 36% and 38%, respectively. Also, the responders at 100 mg/kg in the data set on adult female mice [1] was determined as 12.5%. The compound also came in with an ED50 with adult female mice [2] of 38.1 mg/kg. For the same compound, the “% Loss of Righting Reflex” value with mouse [3] (dose 100 mg/kg) is 0%.

One may read the IC50 as the concentration that inhibits the measured activity by half. The ED50 is the dose at which the effect has come halfway, by size or by number of responders. A higher ED50 goes with a need for a large dose.
